# Measured values from patent US6737383B1, “Herbicidal oxadiazolidines” (priority 1999, dated 2004).
# Experiments:
# bedstraw = assay: Test B pre/postemergence bedstraw; assay type: in vivo, Galium aparine; settings: Preemergence; for Plant response rating, Bedstraw: Rate 125 g/ha
# Method in brief: (§1)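 Test chemicals in a non-phytotoxic solvent mixture with surfactant were sprayed preemergence onto planted seeds and postemergence onto plants 2 to 18 cm tall (1- to 4-leaf stage). After twelve to sixteen days in a greenhouse, injury was visually rated against untreated controls from 0 (no effect) to 10 (complete control).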
# blackgrass = assay: Test B pre/postemergence blackgrass; assay type: in vivo, Alopecurus myosuroides; settings: Preemergence; for Plant response rating, Blackgrass: Rate 125 g/ha
# Method in brief: as §1
# surinam grass = assay: Test B pre/postemergence surinam grass; assay type: in vivo, Brachiaria decumbens; settings: Preemergence; for Plant response rating, B. signalgrass: Rate 125 g/ha
# Method in brief: as §1
# cocklebur = assay: Test B pre/postemergence cocklebur; assay type: in vivo, Xanthium strumarium; settings: Preemergence; for Plant response rating, Cocklebur: Rate 125 g/ha
# Method in brief: as §1
# corn = assay: Test B pre/postemergence corn; assay type: in vivo, Zea mays; settings: Preemergence; for Plant response rating, Corn: Rate 125 g/ha
# Method in brief: as §1
# crabgrass = assay: Test B pre/postemergence crabgrass; assay type: in vivo, Digitaria sanguinalis; settings: Preemergence; for Plant response rating, Crabgrass: Rate 125 g/ha
# Method in brief: as §1
# giant foxtail = assay: Test B pre/postemergence giant foxtail; assay type: in vivo, Setaria faberii; settings: Preemergence; for Plant response rating, Giant foxtail: Rate 125 g/ha
# Method in brief: as §1
# morningglory = assay: Test B pre/postemergence morningglory; assay type: in vivo, Ipomoea hederacea; settings: Preemergence; for Plant response rating, Morningglory: Rate 125 g/ha
# Method in brief: as §1
# pigweed = assay: Test B pre/postemergence pigweed; assay type: in vivo, Amaranthus retroflexus; settings: Preemergence; for Plant response rating, Redroot pigweed: Rate 125 g/ha
# Method in brief: as §1
# rape = assay: Test B pre/postemergence rape; assay type: in vivo, Brassica napus; settings: Preemergence; for Plant response rating, Rape: Rate 125 g/ha
# Method in brief: as §1
# soybean = assay: Test B pre/postemergence soybean; assay type: in vivo, Glycine max; settings: Preemergence; for Plant response rating, Soybean: Rate 125 g/ha
# Method in brief: as §1
# sugar beet = assay: Test B pre/postemergence sugar beet; assay type: in vivo, Beta vulgaris; settings: Preemergence; for Plant response rating, Sugarbeets: Rate 125 g/ha
# Method in brief: as §1
# velvetleaf = assay: Test B pre/postemergence velvetleaf; assay type: in vivo, Abutilon theophrasti; settings: Preemergence; for Plant response rating, Velvetleaf: Rate 125 g/ha
# Method in brief: as §1
# wheat = assay: Test B pre/postemergence wheat; assay type: in vivo, Triticum aestivum; settings: Preemergence; for Plant response rating, Wheat: Rate 125 g/ha
# Method in brief: as §1
# wild oat = assay: Test B pre/postemergence wild oat; assay type: in vivo, Avena fatua; settings: Preemergence; for Plant response rating, Wild oats: Rate 125 g/ha
# Method in brief: as §1
# purple nutsedge = assay: Test B pre/postemergence purple nutsedge; assay type: in vivo, Cyperus rotundus; settings: Preemergence
# Method in brief: as §1
# [1] = Rate 62 g/ha, scale of 0 to 10 where 0 is no effect and 10 is complete control
# [2] = scale of 0 to 10 where 0 is no effect and 10 is complete control
# [3] = Rate 250 g/ha, scale 0 (no effect) to 10 (complete control)
# [4] = Rate 500 g/ha, scale 0 to 10 (0 no effect, 10 complete control)
structure (smiles),measurement,setting,value
CC(C)N(C(=O)n1oc(=O)n(C(C)C2CCC2)c1=O)c1ccc(F)cc1 (centres unmarked) [Compound 718],Bedstraw plant response rating,bedstraw; [1],0
same,"Plant response rating, Bedstraw",bedstraw; [2],0
same,Bedstraw plant response rating,bedstraw; [3],0
same,Bedstraw plant response rating,bedstraw; [4],0
same,Blackgrass plant response rating,blackgrass; [1],8
same,"Plant response rating, Blackgrass",blackgrass; [2],9
same,Blackgrass plant response rating,blackgrass; [3],9
same,Blackgrass plant response rating,blackgrass; [4],10
same,B. signalgrass plant response rating,surinam grass; [1],0
same,"Plant response rating, B. signalgrass",surinam grass; [2],2
same,B. signalgrass plant response rating,surinam grass; [3],7
same,B. signalgrass plant response rating,surinam grass; [4],9
same,Cocklebur plant response rating,cocklebur; [1],0
same,"Plant response rating, Cocklebur",cocklebur; [2],0
same,Cocklebur plant response rating,cocklebur; [3],0
same,Cocklebur plant response rating,cocklebur; [4],0
same,Corn plant response rating,corn; [1],0
same,"Plant response rating, Corn",corn; [2],0
same,Corn plant response rating,corn; [3],0
same,Corn plant response rating,corn; [4],3
same,Crabgrass plant response rating,crabgrass; [1],9
same,"Plant response rating, Crabgrass",crabgrass; [2],10
same,Crabgrass plant response rating,crabgrass; [3],10
same,Crabgrass plant response rating,crabgrass; [4],10
same,Giant foxtail plant response rating,giant foxtail; [1],10
same,"Plant response rating, Giant foxtail",giant foxtail; [2],10
same,Giant foxtail plant response rating,giant foxtail; [3],10
same,Giant foxtail plant response rating,giant foxtail; [4],10
same,Morningglory plant response rating,morningglory; [1],0
same,"Plant response rating, Morningglory",morningglory; [2],0
same,Morningglory plant response rating,morningglory; [3],0
same,Morningglory plant response rating,morningglory; [4],0
same,Redroot pigweed plant response rating,pigweed; [1],0
same,"Plant response rating, Redroot pigweed",pigweed; [2],4
same,Redroot pigweed plant response rating,pigweed; [3],6
same,Redroot pigweed plant response rating,pigweed; [4],8
same,Rape plant response rating,rape; [1],0
same,"Plant response rating, Rape",rape; [2],0
same,Rape plant response rating,rape; [3],2
same,Rape plant response rating,rape; [4],3
same,Soybean plant response rating,soybean; [1],0
same,"Plant response rating, Soybean",soybean; [2],0
same,Soybean plant response rating,soybean; [3],0
same,Soybean plant response rating,soybean; [4],0
same,Sugarbeets plant response rating,sugar beet; [1],0
same,"Plant response rating, Sugarbeets",sugar beet; [2],0
same,Sugarbeets plant response rating,sugar beet; [3],2
same,Sugarbeets plant response rating,sugar beet; [4],2
same,Velvetleaf plant response rating,velvetleaf; [1],0
same,"Plant response rating, Velvetleaf",velvetleaf; [2],0
same,Velvetleaf plant response rating,velvetleaf; [3],0
same,Velvetleaf plant response rating,velvetleaf; [4],0
same,Wheat plant response rating,wheat; [1],0
same,"Plant response rating, Wheat",wheat; [2],0
same,Wheat plant response rating,wheat; [3],0
same,Wheat plant response rating,wheat; [4],2
same,Wild oats plant response rating,wild oat; [1],2
same,"Plant response rating, Wild oats",wild oat; [2],2
same,Wild oats plant response rating,wild oat; [4],8
same,Nutsedge plant response rating,purple nutsedge; [1],0
same,Nutsedge plant response rating,purple nutsedge; [3],0
same,Nutsedge plant response rating,purple nutsedge; [4],0
COCC(OC)n1c(=O)on(C(=O)N(c2ccccc2)C(C)C)c1=O (centres unmarked) [Compound 734],Bedstraw plant response rating,bedstraw; [1],0
same,"Plant response rating, Bedstraw",bedstraw; [2],0
same,Bedstraw plant response rating,bedstraw; [3],0
same,Bedstraw plant response rating,bedstraw; [4],0
same,Blackgrass plant response rating,blackgrass; [1],7
same,"Plant response rating, Blackgrass",blackgrass; [2],9
same,Blackgrass plant response rating,blackgrass; [3],9
same,Blackgrass plant response rating,blackgrass; [4],10
same,B. signalgrass plant response rating,surinam grass; [1],9
same,"Plant response rating, B. signalgrass",surinam grass; [2],9
same,B. signalgrass plant response rating,surinam grass; [3],9
same,B. signalgrass plant response rating,surinam grass; [4],9
same,Cocklebur plant response rating,cocklebur; [1],0
same,"Plant response rating, Cocklebur",cocklebur; [2],0
same,Cocklebur plant response rating,cocklebur; [3],0
same,Cocklebur plant response rating,cocklebur; [4],0
same,Corn plant response rating,corn; [1],0
same,"Plant response rating, Corn",corn; [2],5
same,Corn plant response rating,corn; [3],9
same,Corn plant response rating,corn; [4],9
same,Crabgrass plant response rating,crabgrass; [1],9
same,"Plant response rating, Crabgrass",crabgrass; [2],9
same,Crabgrass plant response rating,crabgrass; [3],9
same,Crabgrass plant response rating,crabgrass; [4],10
same,Giant foxtail plant response rating,giant foxtail; [1],9
same,"Plant response rating, Giant foxtail",giant foxtail; [2],10
same,Giant foxtail plant response rating,giant foxtail; [3],10
same,Giant foxtail plant response rating,giant foxtail; [4],10
same,Morningglory plant response rating,morningglory; [1],2
same,"Plant response rating, Morningglory",morningglory; [2],2
same,Morningglory plant response rating,morningglory; [3],3
same,Morningglory plant response rating,morningglory; [4],6
same,Redroot pigweed plant response rating,pigweed; [1],2
same,"Plant response rating, Redroot pigweed",pigweed; [2],7
same,Redroot pigweed plant response rating,pigweed; [3],8
same,Redroot pigweed plant response rating,pigweed; [4],8
same,Rape plant response rating,rape; [1],0
same,"Plant response rating, Rape",rape; [2],2
same,Rape plant response rating,rape; [3],5
same,Rape plant response rating,rape; [4],7
same,Soybean plant response rating,soybean; [1],0
same,"Plant response rating, Soybean",soybean; [2],0
same,Soybean plant response rating,soybean; [3],0
same,Soybean plant response rating,soybean; [4],7
same,Sugarbeets plant response rating,sugar beet; [1],0
same,"Plant response rating, Sugarbeets",sugar beet; [2],2
same,Sugarbeets plant response rating,sugar beet; [3],5
same,Sugarbeets plant response rating,sugar beet; [4],8
same,Velvetleaf plant response rating,velvetleaf; [1],2
same,"Plant response rating, Velvetleaf",velvetleaf; [2],3
same,Velvetleaf plant response rating,velvetleaf; [3],5
same,Velvetleaf plant response rating,velvetleaf; [4],7
same,Wheat plant response rating,wheat; [1],0
same,"Plant response rating, Wheat",wheat; [2],7
same,Wheat plant response rating,wheat; [3],8
same,Wheat plant response rating,wheat; [4],9
same,Wild oats plant response rating,wild oat; [1],3
same,"Plant response rating, Wild oats",wild oat; [2],8
same,Wild oats plant response rating,wild oat; [3],10
same,Wild oats plant response rating,wild oat; [4],10
same,Nutsedge plant response rating,purple nutsedge; [1],0
same,"Plant response rating, Nutsedge","purple nutsedge; Rate 125 g/ha, scale of 0 to 10 where 0 is no effect and 10 is complete control",0
same,Nutsedge plant response rating,purple nutsedge; [3],0
